The values that follow come from BindingDB's records for patent US20260062387 (Mitsubishi Tanabe Pharma, 2026).

What all share (assay): SIK1, SIK2, and SIK3 inhibition test
For assay [1], the target named is Serine/threonine-protein kinase SIK2 (Homo sapiens, UniProt Q9H0K1). The method, then:
(§1) The inhibitory activity of the compound for SIK1, SIK2, and SIK3 enzymes was assayed by measuring the amount of ADP, an enzyme reaction product, with ADP-Glo™ Max Assay (Promega). Enzymes, specifically, GST-tagged SIK1 (Carna Biosciences, Inc.), GST-tagged SIK2 (Carna Biosciences, Inc.), and GST-tagged SIK3 (SignalChem) were prepared in a reaction buffer (15 mM tris-hydrochloric acid buffer (pH 7.5), 0.001% Triton X-100, 0.01% BSA) so that the final concentration would be 20 nM, 3 nM, and 100 nM. Enzyme solutions were thus formed. In a reaction buffer, AMARA Peptide (SignalChem) as a substrate with a final concentration of 200 μM (SIK1, SIK2) or 100 μM (SIK3), ATP (Promega) with a final concentration of 1 mM, and magnesium chloride with a final concentration of 5 mM were prepared. Substrate solutions were thus formed. The enzyme solution, the substrate solution, and a DMSO solution of a concentration of the test compound were mixed together and reacted at room temperature for 2 hours. After the reaction, ADP-Glo™ Reagent (Promega) was added, and the reaction was performed at room temperature for 30 minutes. Subsequently, ADP-Glo™ Max Detection Reagent (Promega) was added, and the reaction was performed at room temperature for 30 minutes. The emission by the luciferase reaction was measured with PHERAstar FSX (BMG LABTECH).

In assay [2] the target is Serine/threonine-protein kinase SIK1 (Homo sapiens, UniProt P57059). The procedure: as §1
Assay [3] addresses Serine/threonine-protein kinase SIK3 (Homo sapiens, UniProt Q9Y2K2). The method, then: as §1

Sequence of Serine/threonine-protein kinase SIK2 (Q9H0K1 whole entry): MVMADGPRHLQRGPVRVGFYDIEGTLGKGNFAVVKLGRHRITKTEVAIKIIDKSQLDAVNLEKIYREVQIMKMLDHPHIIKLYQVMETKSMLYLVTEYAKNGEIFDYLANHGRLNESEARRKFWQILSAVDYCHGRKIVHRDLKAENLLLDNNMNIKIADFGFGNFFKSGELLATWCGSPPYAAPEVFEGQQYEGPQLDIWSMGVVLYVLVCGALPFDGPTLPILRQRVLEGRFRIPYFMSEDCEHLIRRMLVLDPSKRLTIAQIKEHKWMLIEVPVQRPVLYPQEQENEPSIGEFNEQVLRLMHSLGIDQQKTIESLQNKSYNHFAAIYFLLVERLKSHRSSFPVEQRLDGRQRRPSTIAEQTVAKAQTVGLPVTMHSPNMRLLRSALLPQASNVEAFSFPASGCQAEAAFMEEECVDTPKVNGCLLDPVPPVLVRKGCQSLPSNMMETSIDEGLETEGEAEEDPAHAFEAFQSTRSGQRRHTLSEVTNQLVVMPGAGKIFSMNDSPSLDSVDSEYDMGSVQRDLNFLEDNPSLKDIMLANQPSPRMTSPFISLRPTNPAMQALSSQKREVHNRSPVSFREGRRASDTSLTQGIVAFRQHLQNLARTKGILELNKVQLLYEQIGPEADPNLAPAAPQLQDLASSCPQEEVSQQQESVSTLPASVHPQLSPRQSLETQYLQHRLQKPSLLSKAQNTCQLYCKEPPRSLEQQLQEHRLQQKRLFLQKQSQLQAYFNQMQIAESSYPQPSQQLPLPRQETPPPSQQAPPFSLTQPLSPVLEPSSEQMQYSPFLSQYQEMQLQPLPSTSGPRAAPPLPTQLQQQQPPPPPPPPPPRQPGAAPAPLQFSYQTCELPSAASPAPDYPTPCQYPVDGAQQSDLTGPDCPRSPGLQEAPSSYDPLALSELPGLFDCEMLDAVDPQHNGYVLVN
Sequence of Serine/threonine-protein kinase SIK1 (P57059 whole entry): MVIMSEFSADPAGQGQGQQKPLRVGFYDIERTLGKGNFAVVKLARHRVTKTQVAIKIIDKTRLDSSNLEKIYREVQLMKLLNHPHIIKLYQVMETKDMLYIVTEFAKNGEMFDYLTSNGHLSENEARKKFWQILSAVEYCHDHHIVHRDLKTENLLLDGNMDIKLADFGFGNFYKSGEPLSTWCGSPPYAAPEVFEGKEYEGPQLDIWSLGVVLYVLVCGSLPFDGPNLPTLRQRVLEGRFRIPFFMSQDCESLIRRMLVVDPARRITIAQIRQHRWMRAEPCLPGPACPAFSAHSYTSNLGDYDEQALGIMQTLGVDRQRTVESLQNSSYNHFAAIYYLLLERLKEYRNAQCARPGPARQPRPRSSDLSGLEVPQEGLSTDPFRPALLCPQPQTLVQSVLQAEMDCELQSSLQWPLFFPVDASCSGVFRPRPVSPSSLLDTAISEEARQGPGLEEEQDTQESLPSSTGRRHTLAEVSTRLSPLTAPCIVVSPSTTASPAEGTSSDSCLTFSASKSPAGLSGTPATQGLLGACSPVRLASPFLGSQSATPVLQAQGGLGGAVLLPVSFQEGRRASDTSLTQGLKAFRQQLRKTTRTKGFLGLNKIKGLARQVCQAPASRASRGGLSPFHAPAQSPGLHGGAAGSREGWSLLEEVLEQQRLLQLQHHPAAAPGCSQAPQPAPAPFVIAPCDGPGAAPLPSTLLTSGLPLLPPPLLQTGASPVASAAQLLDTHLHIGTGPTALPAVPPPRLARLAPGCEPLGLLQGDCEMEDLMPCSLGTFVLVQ
Sequence of Serine/threonine-protein kinase SIK3 (Q9Y2K2 whole entry): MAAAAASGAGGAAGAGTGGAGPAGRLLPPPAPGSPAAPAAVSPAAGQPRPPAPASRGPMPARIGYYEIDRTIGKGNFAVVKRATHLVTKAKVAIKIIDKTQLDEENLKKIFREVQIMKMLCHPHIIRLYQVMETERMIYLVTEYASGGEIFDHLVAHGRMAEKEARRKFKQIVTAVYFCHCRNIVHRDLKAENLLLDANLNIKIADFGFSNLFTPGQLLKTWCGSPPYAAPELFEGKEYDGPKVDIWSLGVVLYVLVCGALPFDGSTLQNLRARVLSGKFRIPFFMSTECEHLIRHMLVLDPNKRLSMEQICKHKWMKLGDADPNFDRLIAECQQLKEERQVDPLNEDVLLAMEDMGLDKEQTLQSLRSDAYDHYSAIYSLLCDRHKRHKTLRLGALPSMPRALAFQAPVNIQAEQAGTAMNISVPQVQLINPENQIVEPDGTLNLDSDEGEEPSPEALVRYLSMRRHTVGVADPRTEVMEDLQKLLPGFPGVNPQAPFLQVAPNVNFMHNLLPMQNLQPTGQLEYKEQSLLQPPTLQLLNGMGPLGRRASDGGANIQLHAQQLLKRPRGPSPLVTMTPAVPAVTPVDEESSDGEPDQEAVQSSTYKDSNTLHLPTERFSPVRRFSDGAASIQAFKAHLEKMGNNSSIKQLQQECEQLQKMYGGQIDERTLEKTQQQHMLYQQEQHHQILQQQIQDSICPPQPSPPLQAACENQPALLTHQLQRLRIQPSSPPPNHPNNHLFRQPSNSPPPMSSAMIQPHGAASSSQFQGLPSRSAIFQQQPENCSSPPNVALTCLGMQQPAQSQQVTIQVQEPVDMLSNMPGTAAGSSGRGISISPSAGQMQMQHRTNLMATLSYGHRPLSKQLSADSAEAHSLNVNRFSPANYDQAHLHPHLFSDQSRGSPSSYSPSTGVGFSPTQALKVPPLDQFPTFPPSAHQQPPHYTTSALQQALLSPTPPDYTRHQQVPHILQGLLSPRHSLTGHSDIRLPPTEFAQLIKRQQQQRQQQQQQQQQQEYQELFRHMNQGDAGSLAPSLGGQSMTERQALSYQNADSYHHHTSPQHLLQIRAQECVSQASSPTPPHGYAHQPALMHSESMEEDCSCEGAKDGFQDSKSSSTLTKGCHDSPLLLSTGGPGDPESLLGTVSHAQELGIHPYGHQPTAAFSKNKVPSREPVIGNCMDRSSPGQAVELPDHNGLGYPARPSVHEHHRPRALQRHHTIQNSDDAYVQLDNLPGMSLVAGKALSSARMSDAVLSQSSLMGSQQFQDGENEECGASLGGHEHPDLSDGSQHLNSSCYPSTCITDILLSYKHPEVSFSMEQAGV

With `COc1cc(-c2c3c(C(F)F)cc(-c4cnn(C[C@H](C)O)c4)cc3nn2C)cc(OC(F)F)c1C(=O)N1CC(O)(C(F)(F)F)C1` [US20260062387, Example 72], the IC50 (usually the concentration that inhibits the measured activity by half) in assay [1] came out at 5.6 nM; in assay [2] it was 3.9 nM.
Consider `COc1cc(-c2c3c(OC(F)F)cc(-c4cnn(C)c4)cc3nn2C)cc(OC(F)F)c1C(=O)N1CC(O)(C(F)(F)F)C1` [US20260062387, Example 62], for which the IC50 in assay [1] is 3.9 nM; in assay [2], 7.9 nM; in assay [3], 10.4 nM.
Turning to `COc1cc(-c2c3c(C(F)F)cc(-c4cnn(CCC(=O)N(C)C)c4)cc3nn2C)cc(OC(F)F)c1C(=O)N1CC(O)(C(F)(F)F)C1` [US20260062387, Example 65], the IC50 in assay [1] turned out to be 5.6 nM; in assay [2] it was 9.6 nM; in assay [3] it was 3 nM.
`COc1cc(-c2c3c(OC(F)F)cc(-c4cn(C)nn4)cc3nn2C)cc(OC(F)F)c1C(=O)N1CC(O)(C(F)F)C1` [US20260062387, Example 64]: the IC50 in assay [1] stood at 9 nM; in assay [3], 15.8 nM.
Consider `COc1cc(-c2c3c(C(F)F)cc(-c4cnn(C[C@@H](C)O)c4)cc3nn2C)cc(OC(F)F)c1C(=O)N1CC(O)(C(F)(F)F)C1` [US20260062387, Example 71], for which the IC50 was found to be 6.1 nM in assay [1], 3 nM in assay [2] and 6.8 nM in assay [3].
